In ChEMBL document CHEMBL4706499, “PTG-0861: A novel HDAC6-selective inhibitor as a therapeutic strategy in acute myeloid leukaemia” (Eur J Med Chem, 2020) one finds IC50 and Ratio IC50 data, which are given here for 21 molecules.

SMILES strings stand for the structures. pIC50: −log10 of the molar value.

A short description of assay [1]: Cytotoxicity against human MRC9 cells measured after 72 hrs by spectrophotometer method. It counts as cell-based. To be noted: MRC9, 72 h.
Assay [2] has as its target T1, Protein deacetylase HDAC6 (Homo sapiens, UniProt Q9UBN7).
T1 sequence (Q9UBN7 whole entry): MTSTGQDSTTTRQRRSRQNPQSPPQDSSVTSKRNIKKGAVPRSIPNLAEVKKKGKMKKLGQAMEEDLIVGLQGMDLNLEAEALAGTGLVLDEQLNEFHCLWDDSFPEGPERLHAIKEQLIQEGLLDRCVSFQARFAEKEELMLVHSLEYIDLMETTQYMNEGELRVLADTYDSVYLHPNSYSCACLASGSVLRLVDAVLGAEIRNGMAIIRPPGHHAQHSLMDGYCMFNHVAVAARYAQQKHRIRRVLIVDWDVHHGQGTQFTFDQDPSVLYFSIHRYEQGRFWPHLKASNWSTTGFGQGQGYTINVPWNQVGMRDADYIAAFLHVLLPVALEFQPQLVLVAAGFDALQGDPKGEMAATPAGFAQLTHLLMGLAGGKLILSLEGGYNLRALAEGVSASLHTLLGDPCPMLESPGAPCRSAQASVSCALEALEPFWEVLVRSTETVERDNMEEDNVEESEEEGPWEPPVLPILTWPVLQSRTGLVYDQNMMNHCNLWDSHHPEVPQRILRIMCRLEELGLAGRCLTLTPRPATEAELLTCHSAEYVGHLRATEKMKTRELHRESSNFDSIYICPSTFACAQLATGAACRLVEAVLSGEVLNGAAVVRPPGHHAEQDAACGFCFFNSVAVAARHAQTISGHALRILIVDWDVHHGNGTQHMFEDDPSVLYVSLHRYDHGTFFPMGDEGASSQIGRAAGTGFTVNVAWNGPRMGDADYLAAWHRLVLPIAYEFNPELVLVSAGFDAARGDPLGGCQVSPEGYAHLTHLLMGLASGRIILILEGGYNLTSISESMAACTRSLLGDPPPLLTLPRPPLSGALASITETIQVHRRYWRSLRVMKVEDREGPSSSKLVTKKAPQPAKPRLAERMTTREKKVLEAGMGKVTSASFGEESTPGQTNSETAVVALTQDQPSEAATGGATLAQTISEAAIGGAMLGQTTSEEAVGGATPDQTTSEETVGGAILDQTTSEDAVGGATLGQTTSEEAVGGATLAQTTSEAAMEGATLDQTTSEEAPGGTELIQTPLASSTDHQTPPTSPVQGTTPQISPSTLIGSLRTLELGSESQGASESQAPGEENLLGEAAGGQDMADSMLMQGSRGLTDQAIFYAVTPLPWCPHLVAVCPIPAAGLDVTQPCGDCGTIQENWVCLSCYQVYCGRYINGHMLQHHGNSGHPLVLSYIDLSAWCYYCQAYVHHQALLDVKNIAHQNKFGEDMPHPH
Put plainly: Inhibition of recombinant full length human HDAC6 expressed in SF9 baculovirus using FAM- labelled acetylated peptide as substrate measured by Electrophoretic mobility shift assay.

Assay [3] can be described thus: Selectivity ratio of IC50 for full length recombinant human HDAC3 to IC50 for full length recombinant human HDAC6.
Assay [4] concerns MV4-11. Put plainly: Cytotoxicity against human MV4-11 cells measured after 72 hrs by spectrophotometer method. Type of assay: functional, cell-based. The following applies: MV4-11, 72 h.
Assay [5] deals with Histone deacetylase 3 (Homo sapiens, UniProt O15379). Put plainly: Inhibition of recombinant full length human HDAC3 expressed in SF9 baculovirus using FAM- labelled acetylated peptide as substrate measured by Electrophoretic mobility shift assay.
Histone deacetylase 3, sequence (O15379 whole entry): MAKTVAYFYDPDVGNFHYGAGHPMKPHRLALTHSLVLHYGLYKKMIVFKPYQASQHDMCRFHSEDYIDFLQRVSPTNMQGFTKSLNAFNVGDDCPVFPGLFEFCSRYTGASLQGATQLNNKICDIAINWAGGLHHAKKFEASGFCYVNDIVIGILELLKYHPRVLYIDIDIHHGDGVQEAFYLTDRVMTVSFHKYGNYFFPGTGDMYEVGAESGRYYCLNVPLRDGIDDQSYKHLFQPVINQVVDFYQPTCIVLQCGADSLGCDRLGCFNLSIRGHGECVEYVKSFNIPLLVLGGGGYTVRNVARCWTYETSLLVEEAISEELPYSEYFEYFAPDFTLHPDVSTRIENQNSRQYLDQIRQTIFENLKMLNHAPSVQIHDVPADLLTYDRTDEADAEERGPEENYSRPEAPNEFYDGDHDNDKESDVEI
Assay [6] concerns the target T2, Histone deacetylase 11 (Homo sapiens, UniProt Q96DB2).
T2 sequence (Q96DB2 whole entry): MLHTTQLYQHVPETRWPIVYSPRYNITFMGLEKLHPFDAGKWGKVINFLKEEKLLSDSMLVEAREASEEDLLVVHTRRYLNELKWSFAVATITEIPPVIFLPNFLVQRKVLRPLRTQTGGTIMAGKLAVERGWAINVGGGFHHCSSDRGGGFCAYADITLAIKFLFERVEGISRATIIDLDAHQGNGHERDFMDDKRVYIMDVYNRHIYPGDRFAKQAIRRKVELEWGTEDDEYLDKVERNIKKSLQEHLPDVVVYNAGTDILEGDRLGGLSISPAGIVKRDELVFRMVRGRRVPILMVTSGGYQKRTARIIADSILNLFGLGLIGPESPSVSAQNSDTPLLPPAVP
The assay can be described thus: Inhibition of recombinant full length human HDAC11 expressed in SF9 baculovirus using FAM- labelled acetylated peptide as substrate measured by Electrophoretic mobility shift assay.

In assay [7] the target is T3, Histone deacetylase 8 (Homo sapiens, UniProt Q9BY41).
T3 sequence (Q9BY41 whole entry): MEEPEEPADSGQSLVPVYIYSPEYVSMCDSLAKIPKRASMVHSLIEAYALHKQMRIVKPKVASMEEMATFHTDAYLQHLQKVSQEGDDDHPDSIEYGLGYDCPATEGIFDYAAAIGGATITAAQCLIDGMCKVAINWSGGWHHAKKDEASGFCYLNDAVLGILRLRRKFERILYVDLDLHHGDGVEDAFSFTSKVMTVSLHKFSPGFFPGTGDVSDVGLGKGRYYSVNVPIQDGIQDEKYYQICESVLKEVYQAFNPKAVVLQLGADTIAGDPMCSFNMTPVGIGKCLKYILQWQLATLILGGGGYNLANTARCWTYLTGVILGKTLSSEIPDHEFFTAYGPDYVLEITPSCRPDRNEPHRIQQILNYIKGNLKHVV
The assay can be described thus: Inhibition of recombinant full length human HDAC8 expressed in SF9 baculovirus using FAM- labelled acetylated peptide as substrate measured by Electrophoretic mobility shift assay.

For the molecule `O=C(NO)c1ccc(NC(=O)c2ccc(C(F)(F)F)cc2)cc1`, the pIC50 was < 5.30 in assay [1]; 7.65 in assay [2]; 6.06 in assay [4]; 6.61 in assay [5]; < 6.00 in assay [6]; 6.66 in assay [7]. The Ratio IC50 in assay [3] came to 9.73.

With `CC(C)(C)c1ccc(S(=O)(=O)NCc2ccc(C(=O)NO)cc2)cc1`, the pIC50 in assay [1] was < 4.60; in assay [2], 7.38; in assay [4] it was 5.30; in assay [5] it was 6.53; in assay [6], < 6.00; in assay [7], 6.21. Moreover, in assay [3], the Ratio IC50 turned out to be 7.09.

On to `CC(C)(C)c1ccc(NS(=O)(=O)c2ccc(C(=O)NO)cc2)cc1`, for which the pIC50 in assay [1] was < 4.30; in assay [2] it was 7.76; in assay [4] it was 5.15; in assay [5], 7.46; in assay [6], 6.65; in assay [7], 8.03.

On to `CC(C)(C)c1ccc(S(=O)(=O)Nc2ccc(C(=O)NO)cc2)cc1`, for which the pIC50 was < 4.60 in assay [1]; 8.70 in assay [2]; 5.93 in assay [4]; 8.65 in assay [5]; 7.35 in assay [6]; 7.88 in assay [7]. Further, the Ratio IC50 in assay [3] is 1.12.

Consider `CC(C)N(Cc1ccc(C(=O)NO)cc1)C(=O)c1c(F)c(F)c(F)c(F)c1F`, for which the pIC50 is < 4.82 in assay [1]; 7.85 in assay [2]; 4.79 in assay [4]; < 6.00 in assay [5]; < 6.00 in assay [6]; 6.06 in assay [7]. The Ratio IC50 in assay [3] was found to be 62.6.

Turning to `CC(C)(C)c1ccc(C(=O)N(Cc2ccc(C(=O)NO)cc2)C2CC2)cc1`, the negative-log IC50 (pIC50) in assay [1] was < 4.60; in assay [2], 7.68; in assay [4], 5.07; in assay [5], 6.49; in assay [6] it was < 6.00; in assay [7], 6.57. The Ratio IC50 in assay [3] came to 12.9.

`CC(C)(C)c1cccc(C(=O)Nc2ccc(C(=O)NO)cc2)c1`: the pIC50 in assay [1] was < 4.60; in assay [4] it was 5.41.

In the case of `O=C(NO)c1ccc(CN(C(=O)c2c(F)c(F)c(F)c(F)c2F)C2CC2)cc1`, the pIC50 in assay [1] is < 4.30; in assay [2] it was 7.74; in assay [4], 5.13; in assay [5] it was < 6.00; in assay [6], < 6.00; in assay [7] it was 6.01. Moreover, the Ratio IC50 in assay [3] was > 52.8.

As to `CC(C)(C)c1ccc(C(=O)NCc2ccc(C(=O)NO)cc2)cc1`, the pIC50 in assay [1] was < 4.60; in assay [2] it was 7.49; in assay [4], 6.24; in assay [5], 7.82; in assay [6], < 6.00; in assay [7], 6.79.

As for `O=C(NO)c1ccc(NC(=O)c2ccc(N3CCOCC3)cc2)cc1`, the negative-log IC50 (pIC50) is < 4.30 in assay [1]; 7.02 in assay [2]; 4.77 in assay [4]; < 6.00 in assay [5]; < 6.00 in assay [6]; 6.04 in assay [7]. The Ratio IC50 in assay [3] was > 9.53.

As for `CN(Cc1ccc(C(=O)NO)cc1)C(=O)c1c(F)c(F)c(F)c(F)c1F`, the negative-log IC50 (pIC50) is < 4.60 in assay [1]; 7.76 in assay [2]; 5.43 in assay [4]; 6.13 in assay [5]; < 6.00 in assay [6]; < 6.00 in assay [7]. The Ratio IC50 in assay [3] was determined as 42.8.

In the case of `O=C(/C=C/c1ccc(CNC(=O)c2c(F)c(F)c(F)c(F)c2F)cc1)NO`, the pIC50 was < 4.60 in assay [1]; 7.85 in assay [2]; 6.49 in assay [4]; 7.89 in assay [5]; < 6.00 in assay [6]; 6.55 in assay [7].

As to `O=C(NO)c1ccc(NC(=O)c2ccc(F)cc2)cc1`, the negative-log IC50 (pIC50) was < 4.60 in assay [1]; 8.17 in assay [2]; 5.44 in assay [4]; 7.34 in assay [5]; < 6.00 in assay [6]; 6.25 in assay [7]. Further, in assay [3], the Ratio IC50 turned out to be 6.7.

Turning to `O=C(NO)c1ccc(NC(=O)c2ccc(C3CC3)cc2)cc1`, the pIC50 was < 4.60 in assay [1]; 8.55 in assay [2]; 5.97 in assay [4]; 7.92 in assay [5]; 6.15 in assay [6]; 7.69 in assay [7]. Moreover, the Ratio IC50 in assay [3] stood at 4.23.

Turning to `CC(C)(C)c1ccc(NC(=O)c2ccc(C(=O)NO)cc2)cc1`, the pIC50 in assay [1] is < 4.60; in assay [2], 7.98; in assay [4] it was 5.84; in assay [5], 7.96; in assay [6], 6.35; in assay [7] it was 7.36. Moreover, the Ratio IC50 in assay [3] amounted to 1.05.

Turning to `O=C(/C=C/c1ccc(CN(C(=O)c2c(F)c(F)c(F)c(F)c2F)C2CC2)cc1)NO`, the pIC50 in assay [1] is < 4.60; in assay [2] it was 7.92; in assay [4], 6.12; in assay [5], 7.15; in assay [6] it was < 6.00; in assay [7] it was 6.38. In addition, the Ratio IC50 in assay [3] worked out at 5.83.

Regarding `CCN(C(=O)c1ccc(C(C)(C)C)cc1)c1ccc(C(=O)NO)cc1`, the pIC50 was < 4.60 in assay [1]; < 6.00 in assay [2]; 5.08 in assay [4]; < 6.00 in assay [5]; < 6.00 in assay [6]; 6.55 in assay [7].

`CC(C)(C)c1ccc(CC(=O)Nc2ccc(C(=O)NO)cc2)cc1`: the pIC50 is < 4.82 in assay [1]; 7.89 in assay [2]; 6.47 in assay [4]; 8.43 in assay [5]; < 6.00 in assay [6]; 7.13 in assay [7].

For the molecule `Cc1ccc(C(=O)Nc2ccc(C(=O)NO)cc2)cc1`, the pIC50 in assay [1] was < 4.60; in assay [2], 8.80; in assay [4], 5.62; in assay [5] it was 7.96; in assay [6], < 6.00; in assay [7], 7.67. Besides, the Ratio IC50 in assay [3] amounted to 6.81.

For `O=C(NO)c1ccc(NC(=O)c2c(F)c(F)c(F)c(F)c2F)cc1`, the negative logarithm of the IC50 (pIC50) in assay [1] is < 4.60; in assay [2], 8.84; in assay [4] it was 5.82; in assay [5], 8.50; in assay [6], 6.15; in assay [7], 7.85. In addition, in assay [3], the Ratio IC50 was determined as 2.14.

As to `O=C(NO)c1ccc(NC(=O)c2ccc(C3CCCCC3)cc2)cc1`, the pIC50 was < 4.60 in assay [1]; 7.58 in assay [2]; 6.28 in assay [4]; 6.80 in assay [5]; 6.39 in assay [6]; 6.68 in assay [7]. For the same molecule, the Ratio IC50 in assay [3] is 5.98.
